Publication PMC7177633, “Effective Cellular Transport of Ortho-Halogenated Sulfonamide Derivatives of Metformin Is Related to Improved Antiproliferative Activity and Apoptosis Induction in MCF-7 Cells” (International Journal of Molecular Sciences, 2020)

Experiments:
MDA-MB-231 cells [1] = assay: Intracellular GSH and GSSG, MDA-MB-231; assay type: cell-based, human
Procedure: The quantitative determination of glutathione and glutathione disulfide was performed using the enzymatic recycling method according to the protocol of Rahman. The cells were seeded at a density of 2 × 10^5 per well in a 6-well plate and cultured for 48 h. Then, the cells were treated with tested compounds 1, 4 and 7 at their respective ¼ and ½ IC50 values for MCF-7 and MDA-MB-231 cells. Additionally, controls with pure medium, AAPH (2,2′-Azobis(2-methylpropionamidine) dihydro-chloride, Sigma Aldrich, St. Louis, MO, USA) and ascorbic acid (Polish Chemical Reagents, Poland) were performed. The cells were incubated with compounds for another 24 h, then washed twice with 2 mL of cold, Ca^2+-/Mg^2+-free PBS (Biomed Lublin, Lublin, Poland). The cells were harvested using 1-mL accutase (Sigma Aldrich, St. Louis, MO, USA), and the wells were washed with 1 mL of cold growth medium. The cells were transferred to prechilled 2.0-mL Eppendorf tubes and centrifuged at 1000× g for 5 min at 4 °C. The supernatant was discarded, the pellets were resuspended in 1 mL of cold PBS, the number of cells was determined in each sample and the cellular suspension was centrifuged again. PBS was discarded, and the pellets were stored covered with 30-µL PBS at –70 °C. The following day, the cells were suspended in 0.5 mL of ice-cold extraction buffer (0.1% Triton-X (Polish Chemical Reagents, Gliwice, Poland) and 0.6% sulfosalicylic acid (Sigma Aldrich) in a potassium phosphate buffer with EDTA (Sigma Aldrich)) and sonicated in icy water for 3 min with vortexing every 30 s. The cells were frozen once again at −80 °C, defrosted on ice and frozen once again. Following the second freeze–thaw cycle, the cells were centrifuged at 1500× g for 5 min at 4 °C, and then, immediately, the supernatant was transferred to prechilled Eppendorf tubes. The samples were divided into two parts: one was used to measure GSH, and the other one was derivatized by an addition of 4 µL of 2-vinylpyridine (diluted 1:10 with phosphate buffer) (Sigma Aldrich, St. Louis, MO, USA) to determine the GSSG content.
GSH measurements included an addition of 20 µL of the tested sample, blank or GSH standard, 120 µL of the mixture of an equal volume of DTNB solution (2 mg dissolved in 3 mL of phosphate buffer, Sigma Aldrich) and glutathione reductase (10 U in 3 mL of phosphate buffer, Sigma Aldrich, St. Louis, MO, USA) and 30 s of incubation to allow the conversion of GSSG to GSH. The final step included the addition of 60 µL of β-NADPH (2 mg dissolved in 3 mL of phosphate buffer, Sigma Aldrich). The absorbance was read immediately at 415 nm in a microplate reader (Bio-Rad), and the measurements were taken every 30 s for 2 min (6 readings in total). The amount of GSH was calculated on the basis of the calibration curve prepared using GSH (Sigma Aldrich, St. Louis, MO, USA) at concentrations ranging from 0.040 to 2.6 nmol/mL.
The quantification of GSSG in the test samples was performed according to the same procedure as GSH. The samples treated with 2-VP were incubated for one hour at room temperature, and then, 20 µL of the tested sample was analyzed using the same reagents which were applied in the GSH measurements. The amount of GSSG was calculated on the basis of the calibration curve, prepared using GSSG (Sigma Aldrich) at concentrations of 0.040–2.6 nmol/mL. The results are presented as mean ± SD, n = 6–8 and expressed as nmol per […].

MDA-MB-231 cells [2] = assay: Cell viability WST-1 assay, MDA-MB-231; assay type: cell-based; conditions: Homo sapiens, WST-1, 24 h; for viability at 3000 µM: MDA-MB-231, 24 h, 3000 µmol/L, read-out: percentage of viability of MDA-MB-231 cells
Procedure: The viability of MCF-7 and MDA-MB-231 cells was determined using a colorimetric WST-1 assay (Takara, Takara Bio Europe, Saint-Germain-en-Laye, France). Both cell lines were seeded at a density of 1 × 10^4 per well on 96-well plates and were cultured for 24 h to obtain 70% confluence. The following day, the cells were treated with various concentrations of compounds 1–9 diluted in the cell culture medium ([…]). The cells were incubated with tested compounds or pure medium (control) for 24 h (37 °C, 5% CO2). Afterwards, the cells were washed with 100 μL of culture medium, and then, the reagent dissolved in the medium was added (100 μL). The plates were incubated at the standard condition for 1.5 h, and the absorbance was read at 450 nm using a microplate reader (iMARK, Bio-Rad, Bio-Rad Laboratories Inc., Hercules, CA, USA). […] The results of samples treated with the test compounds were expressed as a percentage of the control samples. The data were presented as mean ± standard deviation (SD), n = 8. IC50 values (the concentration of the tested compound that inhibited cell growth by 50%) were calculated using a concentration-response curve (GraphPad Prism, Software, San Diego, CA, USA).
The concentrations contributing to the 50% of cell growth inhibition (IC50) were calculated using nonlinear regression analysis (fitting the curve to log (concentration) vs. cellular response).

IC50 (MDA-MB-231 cells [2]; MDA-MB-231, mean ± SD (n = 6–8), read-out: IC50 inhibition of MDA-MB-231 cells' viability)	SMILES	GSH (MDA-MB-231 cells [1]; MDA-MB-231, 1/2 × IC50, 24 h)	GSH:GSSG Ratio (MDA-MB-231 cells [1]; MDA-MB-231, 1/2 × IC50, 24 h)	GSSG (MDA-MB-231 cells [1]; MDA-MB-231, 1/2 × IC50, 24 h)	GSH (MDA-MB-231 cells [1]; MDA-MB-231, 1/4 × IC50, 24 h)	GSH:GSSG Ratio (MDA-MB-231 cells [1]; MDA-MB-231, 1/4 × IC50, 24 h)	GSSG (MDA-MB-231 cells [1]; MDA-MB-231, 1/4 × IC50, 24 h)	viability at 3000 µM (MDA-MB-231 cells [2])
	CN(C)C(=N)N=C(N)NS(=O)(=O)c1ccccc1Cl [Compound 1]	242.0 ± 47.0 nmol/1 mln Cells	12.1	19.9 ± 2.0 nmol/1 mln Cells	238.0 ± 4.3 nmol/1 mln Cells	12.2	19.5 ± 2.2 nmol/1 mln Cells	~60%
	CN(C)C(=N)N=C(N)NS(=O)(=O)c1ccccc1Br [Compound 4]	242.1 ± 13.7 nmol/1 mln Cells	12.3	19.6 ± 1.4 nmol/1 mln Cells	250.2 ± 12.1 nmol/1 mln Cells	12.5	19.9 ± 2.3 nmol/1 mln Cells	~56.4%
2.59 ± 0.15 mM	CN(C)C(=N)N=C(N)NS(=O)(=O)c1ccccc1F [Compound 7]	248.7 ± 13.3 nmol/1 mln Cells	11.3	21.9 ± 2.9 nmol/1 mln Cells	265.0 ± 15.9 nmol/1 mln Cells	11.8	22.5 ± 0.9 nmol/1 mln Cells	
